Experimental data reported in PubChem BioAssay AID248 (DTP/NCI, 2004).
Values joined by “and” are separate entries in the source; they are usually repeats but may differ in a detail not shown here. Identical values can stand only once. Inconclusive results and toxic doses are left out.

Tested on: L1210 leukemia ip in BDF1 mice, survival T/C
Test: NCI In Vivo Anticancer Drug Screen. Data for tumor model L1210 Leukemia (intraperitoneal) in B6D2F1 (BDF1) mice
Settings: endpoint: mean survival time, higher = longer survival
In short: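 Transplantable tumor model; survival measured in treated vs vehicle control mice. Value = treated/control.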

[1] = dose: 1000.0 mg/kg/injection, schedule: Q01DX001 (ip), vehicle: carboxymethylcellulose (CMC)
[2] = dose: 100.0 mg/kg/injection, schedule: Q04DX003 (ip), vehicle: saline with Tween-80
[3] = dose: 200.0 mg/kg/injection, schedule: Q04DX003 (ip), vehicle: saline with Tween-80
[4] = dose: 400.0 mg/kg/injection, schedule: Q04DX003 (ip), vehicle: saline with Tween-80

Question: Which T/C (dose: 16.0 mg/kg/injection, schedule: Q01DX001 (ip), vehicle: carboxymethylcellulose (CMC)) does the source give for `O=NN(CCF)C(=O)NC1CCC(NC(=O)N(CCF)N=O)CC1` (stereo unspecified) here?
Answer: 151 % of control

Question: What about the T/C (dose: 30.0 mg/kg/injection, schedule: Q01DX001 (ip), vehicle: other) of the same molecule?
Answer: 190 % of control

Question: And the T/C (dose: 31.0 mg/kg/injection, schedule: Q01DX001 (ip), vehicle: carboxymethylcellulose (CMC))?
Answer: 176 % of control

Question: And the T/C (dose: 50.0 mg/kg/injection, schedule: Q01DX001 (ip), vehicle: other)?
Answer: 220 % of control

Question: What about the T/C (dose: 60.0 mg/kg/injection, schedule: Q01DX001 (ip), vehicle: other) of the same molecule?
Answer: 294 % of control

Question: And the T/C (dose: 62.0 mg/kg/injection, schedule: Q01DX001 (ip), vehicle: carboxymethylcellulose (CMC))?
Answer: 336 % of control

Question: And the T/C (dose: 80.0 mg/kg/injection, schedule: Q01DX001 (ip), vehicle: other)?
Answer: 300 % of control

Question: And the T/C (dose: 120.0 mg/kg/injection, schedule: Q01DX001 (ip), vehicle: other)?
Answer: 315 % of control and 340 % of control

Question: And the T/C (dose: 125.0 mg/kg/injection, schedule: Q01DX001 (ip), vehicle: carboxymethylcellulose (CMC))?
Answer: 357 % of control

Question: What about the T/C (dose: 180.0 mg/kg/injection, schedule: Q01DX001 (ip), vehicle: other) of the same molecule?
Answer: 340 % of control

Question: And the T/C (dose: 240.0 mg/kg/injection, schedule: Q01DX001 (ip), vehicle: other)?
Answer: 298 % of control

Question: And the T/C (dose: 250.0 mg/kg/injection, schedule: Q01DX001 (ip), vehicle: carboxymethylcellulose (CMC))?
Answer: 357 % of control

Question: And the T/C (dose: 375.0 mg/kg/injection, schedule: Q01DX001 (ip), vehicle: carboxymethylcellulose (CMC))?
Answer: 276 % of control

Question: And the T/C (dose: 500.0 mg/kg/injection, schedule: Q01DX001 (ip), vehicle: carboxymethylcellulose (CMC))?
Answer: 271 % of control

Question: And the T/C (dose: 750.0 mg/kg/injection, schedule: Q01DX001 (ip), vehicle: carboxymethylcellulose (CMC))?
Answer: 175 % of control

Question: What about the T/C [1] of the same molecule?
Answer: 175 % of control

Question: Which results are given for `COc1cc2c(cc1OC)NCc1cccn1C2`?
Answer: T/C (dose: 25.0 mg/kg/injection, schedule: Q04DX002 (ip), vehicle: saline with Tween-80): 101 % of control; T/C (dose: 50.0 mg/kg/injection, schedule: Q04DX002 (ip), vehicle: saline with Tween-80): 97 % of control; T/C (dose: 100.0 mg/kg/injection, schedule: Q04DX002 (ip), vehicle: saline with Tween-80): 105 % of control

Question: With `N=C([Se])c1cn(C2OC(CO)C(O)C2O)c2ncnc(N)c12` (stereo unspecified) as the molecule, how does the T/C (dose: 0.09 mg/kg/injection, schedule: Q01DX009 (ip), vehicle: saline) read?
Answer: 109 % of control

Question: What about the T/C (dose: 0.19 mg/kg/injection, schedule: Q01DX005 (ip), vehicle: saline) of the same molecule?
Answer: 119 % of control

Question: What about the T/C (dose: 0.19 mg/kg/injection, schedule: Q01DX009 (ip), vehicle: saline) of the same molecule?
Answer: 108 % of control

Question: And the T/C (dose: 0.39 mg/kg/injection, schedule: Q01DX005 (ip), vehicle: saline)?
Answer: 117 % of control

Question: And the T/C (dose: 0.39 mg/kg/injection, schedule: Q01DX009 (ip), vehicle: saline)?
Answer: 104 % of control

Question: And the T/C (dose: 0.78 mg/kg/injection, schedule: Q01DX005 (ip), vehicle: saline)?
Answer: 106 % of control

Question: For `Nc1ccc(OC(=O)Nc2ccc(O)cc2)cc1`, which T/C (dose: 53.0 mg/kg/injection, schedule: Q01DX Z (ip), vehicle: other) is on record?
Answer: 94 % of control

Question: What about the T/C (dose: 80.0 mg/kg/injection, schedule: Q01DX Z (ip), vehicle: other) of the same molecule?
Answer: 97 % of control

Question: And the T/C (dose: 80.0 mg/kg/injection, schedule: Q01DX Z (ip), vehicle: saline)?
Answer: 89 % of control

Question: And the T/C (dose: 120.0 mg/kg/injection, schedule: Q01DX Z (ip), vehicle: other)?
Answer: 105 % of control

Question: What about the T/C (dose: 180.0 mg/kg/injection, schedule: Q01DX Z (ip), vehicle: other) of the same molecule?
Answer: 100 % of control

Question: What about the T/C (dose: 180.0 mg/kg/injection, schedule: Q01DX Z (ip), vehicle: saline) of the same molecule?
Answer: 92 % of control

Question: And the T/C (dose: 270.0 mg/kg/injection, schedule: Q01DX Z (ip), vehicle: other)?
Answer: 102 % of control

Question: And the T/C (dose: 270.0 mg/kg/injection, schedule: Q01DX Z (ip), vehicle: saline)?
Answer: 93 % of control

Question: What about the T/C (dose: 404.0 mg/kg/injection, schedule: Q01DX Z (ip), vehicle: other) of the same molecule?
Answer: 100 % of control

Question: What about the T/C (dose: 405.0 mg/kg/injection, schedule: Q01DX Z (ip), vehicle: saline) of the same molecule?
Answer: 92 % of control

Question: Which results are given for `NCCc1c[nH]c2ccc(O)cc12` (tested in a mixture with another compound)?
Answer: T/C (dose: 120.0 mg/kg/injection, schedule: Q01DX009 (ip), vehicle: carboxymethylcellulose (CMC)): 107 % of control; T/C (dose: 400.0 mg/kg/injection, schedule: Q01DX001 (ip), vehicle: carboxymethylcellulose (CMC)): 108 % of control; T/C (dose: 600.0 mg/kg/injection, schedule: Q01DX001 (ip), vehicle: carboxymethylcellulose (CMC)): 108 % of control; T/C (dose: 600.0 mg/kg/injection, schedule: Q01DX009 (ip), vehicle: carboxymethylcellulose (CMC)): 102 % of control; T/C (dose: 800.0 mg/kg/injection, schedule: Q01DX001 (ip), vehicle: carboxymethylcellulose (CMC)): 114 % of control; T/C (dose: 800.0 mg/kg/injection, schedule: Q01DX009 (ip), vehicle: carboxymethylcellulose (CMC)): 119 % of control; T/C [1]: 106 % of control

Question: With `COc1ccc(COC(=O)CN2C(=O)c3ccccc3C2=O)cc1` as the molecule, how does the T/C (dose: 100.0 mg/kg/injection, schedule: Q01DX009 (ip), vehicle: Klucel (hydroxypropylcellulose) (HPC)) read?
Answer: 98 % of control

Question: What about the T/C (dose: 100.0 mg/kg/injection, schedule: Q04DX003 (ip), vehicle: Klucel (hydroxypropylcellulose) (HPC)) of the same molecule?
Answer: 95 % of control

Question: And the T/C (dose: 200.0 mg/kg/injection, schedule: Q01DX009 (ip), vehicle: Klucel (hydroxypropylcellulose) (HPC))?
Answer: 107 % of control

Question: And the T/C (dose: 200.0 mg/kg/injection, schedule: Q04DX003 (ip), vehicle: Klucel (hydroxypropylcellulose) (HPC))?
Answer: 95 % of control

Question: And the T/C (dose: 400.0 mg/kg/injection, schedule: Q01DX009 (ip), vehicle: Klucel (hydroxypropylcellulose) (HPC))?
Answer: 98 % of control

Question: What about the T/C (dose: 400.0 mg/kg/injection, schedule: Q04DX003 (ip), vehicle: Klucel (hydroxypropylcellulose) (HPC)) of the same molecule?
Answer: 93 % of control

Question: How did the T/C (dose: 100.0 mg/kg/injection, schedule: Q01DX001 (ip), vehicle: other) turn out when `CCCCCCCCCCCCCC#N` was run?
Answer: 101 % of control

Question: And the T/C (dose: 200.0 mg/kg/injection, schedule: Q01DX001 (ip), vehicle: other)?
Answer: 92 % of control

Question: What about the T/C (dose: 400.0 mg/kg/injection, schedule: Q01DX001 (ip), vehicle: other) of the same molecule?
Answer: 92 % of control

Question: With `CC(C(=O)c1cc(O)c(O)cc1C(O)(C(F)(F)F)C(F)(F)F)C(O)(C(F)(F)F)C(F)(F)F` (stereo unspecified) as the molecule, how does the T/C [2] read?
Answer: 102 % of control

Question: What about the T/C [3] of the same molecule?
Answer: 98 % of control

Question: What about the T/C [4] of the same molecule?
Answer: 98 % of control

Question: For `NNC(=O)CNc1cc(Cl)cc(Cl)c1`, which T/C (dose: 100.0 mg/kg/injection, schedule: Q01DX001 (ip), vehicle: carboxymethylcellulose (CMC)) is on record?
Answer: 94 % of control

Question: And the T/C (dose: 100.0 mg/kg/injection, schedule: Q01DX009 (ip), vehicle: carboxymethylcellulose (CMC))?
Answer: 92 % of control

Question: And the T/C (dose: 100.0 mg/kg/injection, schedule: Q04DX002 (ip), vehicle: Klucel (hydroxypropylcellulose) (HPC))?
Answer: 91 % of control

Question: And the T/C (dose: 100.0 mg/kg/injection, schedule: Q04DX002 (ip), vehicle: carboxymethylcellulose (CMC))?
Answer: 95 % of control and 100 % of control

Question: What about the T/C (dose: 100.0 mg/kg/injection, schedule: Q04DX003 (ip), vehicle: carboxymethylcellulose (CMC)) of the same molecule?
Answer: 92 % of control

Question: What about the T/C (dose: 200.0 mg/kg/injection, schedule: Q01DX001 (ip), vehicle: carboxymethylcellulose (CMC)) of the same molecule?
Answer: 96 % of control

Question: And the T/C (dose: 200.0 mg/kg/injection, schedule: Q01DX009 (ip), vehicle: carboxymethylcellulose (CMC))?
Answer: 88 % of control

Question: And the T/C (dose: 200.0 mg/kg/injection, schedule: Q04DX002 (ip), vehicle: Klucel (hydroxypropylcellulose) (HPC))?
Answer: 109 % of control

Question: What about the T/C (dose: 200.0 mg/kg/injection, schedule: Q04DX002 (ip), vehicle: carboxymethylcellulose (CMC)) of the same molecule?
Answer: 95 % of control and 104 % of control

Question: What about the T/C (dose: 200.0 mg/kg/injection, schedule: Q04DX003 (ip), vehicle: carboxymethylcellulose (CMC)) of the same molecule?
Answer: 97 % of control

Question: What about the T/C (dose: 400.0 mg/kg/injection, schedule: Q04DX002 (ip), vehicle: carboxymethylcellulose (CMC)) of the same molecule?
Answer: 98 % of control

Question: What does the source list for `COc1cc(CC(=O)C(=O)O)oc(=O)c1`?
Answer: T/C [2]: 102 % of control; T/C [3]: 95 % of control; T/C [4]: 98 % of control

Question: Which T/C (dose: 100.0 mg/kg/injection, schedule: Q01DX001 (ip), vehicle: saline) does the source give for `O=C(Nc1ccc(S(=O)(=O)NC2CCCCC2)cc1)OC1CCCCCC1` here?
Answer: 94 % of control

Question: And the T/C (dose: 200.0 mg/kg/injection, schedule: Q01DX001 (ip), vehicle: saline)?
Answer: 94 % of control

Question: What about the T/C (dose: 400.0 mg/kg/injection, schedule: Q01DX001 (ip), vehicle: saline) of the same molecule?
Answer: 88 % of control
